In BindingDB's records for doi:10.1126/science.2551039 (UniversitÄT Heidelberg, 1989):
pKi: −log10 of the molar value. Several values for one entry are separate records, joined by “and”; a condition that tells them apart may be missing. Equal values may be shown once.

What was measured:
[1] = target: T1, Gamma-aminobutyric acid receptor subunit alpha-2 (Homo sapiens, UniProt P47869)
T1 sequence (P47869 whole entry): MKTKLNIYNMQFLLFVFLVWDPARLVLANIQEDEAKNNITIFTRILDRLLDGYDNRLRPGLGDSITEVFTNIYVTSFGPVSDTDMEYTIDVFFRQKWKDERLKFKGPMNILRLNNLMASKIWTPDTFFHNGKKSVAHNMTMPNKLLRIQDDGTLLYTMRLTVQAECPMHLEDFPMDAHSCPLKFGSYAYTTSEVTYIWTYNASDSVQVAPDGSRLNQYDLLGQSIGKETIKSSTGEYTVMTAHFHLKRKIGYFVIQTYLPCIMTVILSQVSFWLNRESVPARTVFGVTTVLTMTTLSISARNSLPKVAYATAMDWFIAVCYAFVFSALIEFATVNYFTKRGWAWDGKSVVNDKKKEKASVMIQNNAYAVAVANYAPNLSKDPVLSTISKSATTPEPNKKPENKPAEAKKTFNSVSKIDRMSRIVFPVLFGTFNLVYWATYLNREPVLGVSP

[2] = target: T2, Gamma-aminobutyric acid receptor subunit alpha-3 (Homo sapiens, UniProt P34903)
T2 sequence (P34903 whole entry): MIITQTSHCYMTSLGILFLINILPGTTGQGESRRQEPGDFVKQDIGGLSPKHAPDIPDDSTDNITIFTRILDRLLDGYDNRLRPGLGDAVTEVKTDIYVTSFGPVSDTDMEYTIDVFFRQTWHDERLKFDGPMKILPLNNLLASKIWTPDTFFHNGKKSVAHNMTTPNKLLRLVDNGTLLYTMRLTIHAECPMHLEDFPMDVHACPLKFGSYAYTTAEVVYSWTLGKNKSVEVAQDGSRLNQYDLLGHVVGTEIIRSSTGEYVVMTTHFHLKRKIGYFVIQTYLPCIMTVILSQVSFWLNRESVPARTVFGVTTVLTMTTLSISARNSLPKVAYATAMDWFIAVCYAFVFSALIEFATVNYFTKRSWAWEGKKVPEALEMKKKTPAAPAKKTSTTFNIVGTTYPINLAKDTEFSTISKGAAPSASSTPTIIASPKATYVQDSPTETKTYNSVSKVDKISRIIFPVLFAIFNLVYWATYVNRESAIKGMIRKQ

[3] = target: T3, Gamma-aminobutyric acid receptor subunit alpha-1 (Homo sapiens, UniProt P14867)
T3 sequence (P14867 whole entry): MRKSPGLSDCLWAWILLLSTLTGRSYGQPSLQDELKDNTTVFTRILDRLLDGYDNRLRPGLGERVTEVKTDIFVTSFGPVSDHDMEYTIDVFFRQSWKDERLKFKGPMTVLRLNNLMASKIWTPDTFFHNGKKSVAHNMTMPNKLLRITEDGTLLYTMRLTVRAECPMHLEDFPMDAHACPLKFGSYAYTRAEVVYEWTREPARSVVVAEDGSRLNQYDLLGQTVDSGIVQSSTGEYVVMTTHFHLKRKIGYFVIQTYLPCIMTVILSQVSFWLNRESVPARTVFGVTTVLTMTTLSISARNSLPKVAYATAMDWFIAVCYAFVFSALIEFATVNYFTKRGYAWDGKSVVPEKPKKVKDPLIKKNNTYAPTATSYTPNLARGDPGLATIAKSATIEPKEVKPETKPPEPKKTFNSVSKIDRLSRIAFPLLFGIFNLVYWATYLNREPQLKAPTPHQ

Work on O=C1CN=C(c2ccccc2F)c2cc(Cl)ccc2N1CC(F)(F)F [NSC_93250] yielded a pKi [1] of 6.63 and a pKi [2] of 6.69.
COC(=O)c1cc2c(cn1)[nH]c1ccccc12 was tested, and the pKi [1] was 8.54, the pKi [3] was 9.11 and the pKi [2] was 8.39.
In the case of O=C1CN=C(c2ccccc2Cl)c2cc([N+](=O)[O-])ccc2N1 [5-(2-chlorophenyl)-7-nitro-1,3-dihydro-2H-1,4-benzodiazepin-2-one], the pKi [1] was 8.77, the pKi [3] was 8.90 and the pKi [2] was 8.70.
With CCc1c(C(=O)OC)ncc2[nH]c3cc(OC)c(OC)cc3c12 [NSC_104999] the pKi [1] was 7.84, the pKi [3] was 8.28 and the pKi [2] was 7.97.
With Cc1nnc2ccc(-c3cccc(C(F)(F)F)c3)nn12 the pKi [1] was 5.70 and 5.76, the pKi [3] was 6.39 and 6.97 and the pKi [2] was 5.75 and 5.79.
